In patent US9333244B2, “Composition and lipid formulation of a hyaluronan-degrading enzyme and the use thereof for treatment of benign prostatic hyperplasia” (Halozyme, Inc., priority 2011, dated 2016):

Columns and labels:
[1] = test system: TE-induced rat prostatic hyperplasia; assay: Rat model of TE-induced prostatic hyperplasia: prostate weight; assay type: in vivo
Procedure: In this example, the ability of testosterone enanthate (TE) to induce prostatic hyperplasia in rat prostate was examined. Briefly, twenty-five (25) 8-week old male Sprague-Dawley rats (Harlan, USA) were dosed by intramuscular injection with 25 mg TE (Lot#80G010A, Abraxis Bioscience, Phoenix, Ariz.) per rat, once a week, on days 0, 7, 14 and 21. Five (5) out of 25 rats were sacrificed pre-TE treatment and 5 of the remaining 20 rats were sacrificed weekly. The ventral lobes of the prostates were harvested for analysis. […] Additionally, the increase in rat prostatic weight was linearly related to sustained TE exposure. The half-life of TE in the rat blood was approximately 10.5 days (Anderson R A, J Clin Endocrinol Metab., (1996) 81(3):896-901).
(§1) In this example, PEGPH20 was administered to TE-induced prostatic hyperplasic rats to evaluate its effect on prostate weight. Testosterone enanthate was administered by intramuscular injection and PEGPH20 (diluted in normal saline) was administered intravenously. Following treatment, the animals were sacrificed and the ventral lobes of the prostates were harvested for analysis. Prostate weight was measured using an electronic scale.
as §1, with “Testosterone” for “In this example, PEGPH20 was administered to TE-induced prostatic hyperplasic rats to evaluate its effect on prostate weight. Testosterone”
as §1, with “example, the time-dependence of treatment of rat BPH with” for “example,”, “evaluated by administering PEGPH20 at various time points.” for “administered to TE-induced prostatic hyperplasic rats to evaluate its effect on prostate weight.”
In this example, the effect of treatment with PEGPH20 was compared to treatment with finasteride using the rat TE-prostatic hyperplasia model. Testosterone enanthate was administered by intramuscular injection, PEGPH20 (diluted in normal saline) was administered intravenously and finasteride was administered intraperitoneally. On day 21 the animals were sacrificed and the ventral lobes of the prostates were harvested for analysis. Prostate weight was measured using an electronic scale.
In this example, the effect of combination therapy with PEGPH20 and finasteride was evaluated. PEGPH20 was administered at a dose of either 0.82 mg/kg (low dose) or 2 mg/kg (high dose). Testosterone enanthate was administered by intramuscular injection, PEGPH20 (diluted in normal saline) was administered intravenously and finasteride was administered intraperitoneally. On day 21 the animals were sacrificed and the ventral lobes of the prostates were harvested for analysis. Prostate weight was measured using an electronic scale.
Percent (%) inhibition was determined according to the formula: ((Control-treated)/Control)×100. […] The prostatic water content of each group was calculated from the wet weight and the dry weight and found to be the same for all groups (˜80%). Therefore, the change in prostate weight cannot be attributed to decreased tissue water.
Testosterone enanthate was administered by intramuscular injection, PEGPH20 was administered intravenously or by intra-prostatic injection and DepoGel vehicle or DepoPH20 were administered by intra-prostatic injection. On day 21 the animals were sacrificed and the ventral lobes of the prostates were harvested for analysis. Prostate weight was measured using an electronic scale.
(§2) In this study, 25 mg TE was administered […] to each rat on days 1 and 7. 50 μL of 4700 U/mL (0.18 mg/mL) MVL-PH20F40 and 50 μL MVL-Vehicle were administered intraprostatically on day 7. […]

prostate stromal cells = assay: TUNEL assay, apoptosis of stromal cells; assay type: in vivo, rat
Procedure: In this example, the ability of PEGPH20 to cause apoptosis of stromal cells was analyzed. In situ detection of cell apoptosis by TUNEL assay was based on a reaction for in situ terminal deoxynucleotidyl-transferase (TdT)-mediated biotinylated UTP nick-end labelling (TUNEL). This was essentially performed by using the FragEL DNA (Cat# QIA39-1EA, Calbiochem, Gibbstown, N.J.) according to the manufacturer's directions. In brief, de-paraffinized tissue sections were treated with proteinase K (0.02 mg/mL, Cat#25530, Invitrogen, Carlsbad, Calif.). The slides were then washed in Tris buffered saline (TBS), and endogenous peroxidase was blocked for 5 min in 3% H2O2 diluted in methanol. After washes in TBS, sections were treated with 1×TdT equilibration buffer at room temperature for 30 min and subsequently incubated with TdT labelling reaction mix ([…]) for 1.5 h at 37° C. The slides were rinsed in TBS and mounted using Fluorein-FragEL mounting media, then sealed with nail polish. The number of TUNEL-positive cells was counted on each section at ×200 under a light microscope.
as §2

[2] = cited from earlier work
[3] = test system: prostatic stroma and stromal HA; assay: Prostatic histology: stromal HA (biotinylated HABP) and stromal proliferation (H&E); assay type: in vivo; conditions: rat prostate stroma; substance alone (PEGPH20 0.82 mg/kg iv, day 12; TE 25 mg/rat im days 0 and 8, day 18)
Procedure: In this example, the effect of PEGPH20 on prostatic stroma and stromal HA of normal and TE-induced prostatic hyperplasia rats was analyzed by prostatic histology, including hematoxylin and eosin staining and IHC staining. Stromal proliferation was determined by visually comparing the size of the stroma. Testosterone enanthate was administered by intramuscular injection and PEGPH20 (diluted in normal saline) and control were administered intravenously. Following treatment, the animals were sacrificed and the ventral lobes of the prostates were harvested for analysis.
Prostate tissues were fixed in 10% neutral buffered formalin in PBS for 24 hours, dehydrated with gradient ethanol, cleared with xylene, and embedded in paraffin. Paraffin block was cut to 5 μm sections. Tissue sections were dewaxed, rehydrated and processed by standard hematoxylin and eosin (H&E) staining. Histochemical localization of HA was carried out using a biotinylated-HABP probe (bHABP, Cat#400763-1A, Associates of Cape Cod, Mass.). Sections were deparaffinized in xylene, 2×5 min, hydrated in 100% ethanol, for 2×3 min, and in 95% ethanol for 1 min, then rinsed in distilled water, incubated at 37° C. for 20 min in a trypsin solution, and rinsed in PBS for 2×2 min. […]

SMILES | inhibition of prostate growth ([1]; TE days 0, 7, PEGPH20 0.82 mg/kg iv QOD days 7-20 or finasteride 25 mg/kg ip daily days 7-20, day 21, vs TE alone P<0.01) | reduction in prostate size relative to vehicle control ([1]; TE days 1 and 7, finasteride 2.5 mg/kg ip daily starting on day 7) | % Inhibit ([1]; group 4: 3 wk TE, finasteride (25 mg/kg ip daily, 2 wk)) | Prostatic Weight (g) Mean ± SD ([1]; group 4: 3 wk TE, finasteride (25 mg/kg ip daily, 2 wk), day 21, P 0.007) | increase in prostate size ([1]; 25 mg TE per rat im once a week for a month) | Prostatic Weight (g) Mean ± SD ([1]; TE 25 mg/rat days 0, 7, 14, sacrificed day 21) | Prostatic Weight Mean ± SD ([1]; TE 3 wks (25 mg/rat days 0, 7, 14), day 21) | increase in prostate weight post TE exposure ([1]; day 7, TE 25 mg/rat im) | increase in prostate weight post TE exposure ([1]; day 18, TE 25 mg/rat im days 0, 7 and 14) | Prostatic Weight (g) Mean ± SD ([1]; group 1: 3 wk TE (25 mg/rat days 0, 7, 14), day 21) | Prostatic Weight (g) Mean ± SD ([1]; group 1: TE 25 mg/rat days 0, 7, sacrificed day 28) | Prostatic Weight (g) Mean ± SD ([1]; group 2: TE 25 mg/rat days 0, 7, 14, 21, sacrificed day 28) | Prostatic Weight (g) Mean ± SD ([1]; group 3: TE 25 mg/rat days 0, 7, sacrificed day 21) | Apoptotic cells/section Mean ± SD (prostate stromal cells; TE 7 d) | Apoptotic cells/section Mean ± SD (prostate stromal cells; TE 18 d) | half-life of TE in the rat blood [2] | Effect on HA [3] | Effect on Stroma [3]
CC(C)(C)NC(=O)[C@H]1CC[C@H]2[C@@H]3CC[C@H]4NC(=O)C=C[C@]4(C)[C@H]3CC[C@]12C [finasteride, (5α,17β)-N -(1,1-dimethethylethy)-3-oxo-4-azaandrost-1-ene-17-carboxamide] | approximately 37% | 18.7% | 25.2% | 1.00 ± 0.19 g |  |  |  |  |  |  |  |  |  |  |  |  |  | 
CCCCCCC(=O)O[C@H]1CC[C@H]2[C@@H]3CCC4=CC(=O)CC[C@]4(C)[C@H]3CC[C@]12C [TE, testosterone enanthate] |  |  |  |  | ~3 fold | 1.54 ± 0.07 g | 1.64 ± 0.12 g | 18.9% | 85.7% | 1.33 ± 0.23 g | 1.49 ± 0.47 g | 1.76 ± 0.18 g | 1.57 ± 0.09 g | 4.6 ± 2.51 cells/section | 1.75 ± 1.71 cells/section | approximately 10.5 days | Increased | Increased proliferation
